According to patent publication US8374794B1, “Protein synthesis modulators” (Rib-X Pharmaceuticals, Inc., priority 2003, dated 2013):

Target: T1, H. marismortui large ribosomal subunit (Haloarcula marismortui, UniProt P32411)
T1 construct: Ribosomes were purified and crystallized as described previously; endogenous in cells; host or cells: Haloarcula marismortui (ribosomes purified from the organism)
Assay: X-ray diffraction of large ribosomal subunit crystals soaked with cycloheximide
Type: binding
Settings: crystals soaked with about 30 mM cycloheximide, 1% DMSO, 4° C., 24 hours; difference Fourier maps at 3.0 A resolution
Procedure: The present invention is based, in part, upon the three-dimensional structure of cycloheximide when associated with the large ribosomal subunit. Crystals of the H. marismortui large ribosomal subunit were soaked with cycloheximide at a concentration of about 30 mM, which is equivalent to about […], and the structure of the large ribosome subunit complexed with cycloheximide was resolved via X-ray diffraction studies.
Briefly, a small amount of a concentrated cycloheximide solution was added to a large subunit crystal suspended in stabilization solution and incubated for several hours. Following freezing and the other procedures normally used to prepare such crystals for experimental use, X-ray diffraction data were collected from the cycloheximide containing crystals. […]
The atomic co-ordinates of the large ribosomal subunit associated with cycloheximide are recorded on compact disk, Disk No. 1, under file name cycloheximide.pdb. […]
Electron density corresponding to the antibiotic was first seen in Fo (antibiotic)-Fc (native) difference Fourier maps at 3.0 A resolution. […] The atomic co-ordinates defining the structure of cycloheximide when bound to the large ribosomal subunit are recorded on compact disk, Disk No. 1 under file name cycloheximide.pdb.

`C[C@@H]1C[C@@H]([C@H](O)CC2CC(=O)NC(=O)C2)C(=O)[C@@H](C)C1` (relative stereo) [cycloheximide, [1S-[1α(S*),3α,5β]]-4-[2-(3,5-dimethyl-2-oxocyclohexyl)-2-hydroxyethyl]-2,6-piperidinedione] was tested, and the “binding of cycloheximide in the large ribosomal subunit (specific vs. non-specific sites)” value was “bound to a single location in the large ribosomal subunit”.
